Patent publication US20240409558A1, “IRREVERSIBLE INHIBITORS OF KRAS” (BIOMEA FUSION, INC., priority 2021, published 2024)

test system: human KRAS G12C mutated cell line MIA PaCa-2; test: Inhibition of proliferation of MIA PaCa-2 cells (CellTiter-Glo, 7 day); format: cell-based; conditions: 168 h, Table 1, CellTiter-Glo luminescence read on day 7, read-out: MIA PaCa-2 IC50
From the text: The present example evaluates the ability of compounds provided herein to inhibit proliferation of KRAS mutant cells.
The proliferation inhibitory effect was investigated in the human KRAS G12C mutated cell line MIA PaCa-2 (Yunis et al., 1977, Int. J. Cancer 19(1):128-135; ATCC catalog no. CRL-1420). Cells were maintained in RPMI-1640 medium (ThermoFisher catalog no. 61870036) supplemented with 10% of Heat Inactivated FBS (ThermoFisher catalog no. A31605) and 1% Pen-Strep (ThermoFisher catalog no. 10378016) and cultured at 37° C. in a humidified incubator with 5% CO2. Cell lines were grown by adhering to culture flasks, and the cells were maintained in a range 70%-80% confluency.
ATP is present in all metabolically active cells and is considered as a marker for cell viability and proliferation. Metabolic cell activity was determined using the CellTiter-Glo kit (Promega catalog no. G7572), an ATP monitoring system based on the production of luminescence by the reaction of ATP with added UltraGlo® recombinant luciferase (Kawano et al., 2016, PLOS One, 8; 11(7):e0158888), according to the supplier's experimental recommendations. The assay was based on a 96 well plate format.
Test compounds were dissolved at 10 mM in DMSO (Sigma catalog no. D8418; purity >99.9%) and stored at −20° C. Eight concentrations of test compound were assessed in duplicate in an individual test occasion in parallel in the selected cell lines. MRTX-849 and AMG-510 were used as reference compounds and tested in duplicate at eight concentrations. 100% of proliferation is represented by the untreated cells (0.2% DMSO).
(§1) On the day of the experiment (TO), cells were detached with TrypLE (ThermoFisher catalog no. 12604054) and quantified using the Vi-CELL XR Cell Viability (Beckman Coulter) analyzer and diluted with fresh medium to obtain the cell density of about 1000 cells per 200 μL medium. 200 μL of cell suspension were added into wells in the 96 well plate.
After 2 hours from seeding cells, compounds were added using a D300e compound dispenser (Tecan Trading AG) at desired concentrations with shaking between each compound dispensed. Cell plates containing 200 μL/well were incubated at 37° C. in a humidified incubator with 5% CO2.
On day T3, 150 μL of growth media per well were removed from plates containing the samples, 150 uL fresh growth media were added to each well, and fresh compounds were added using a D300e compound dispenser (Tecan Trading AG) at desired concentrations with shaking between each compound dispensed. Cell plates containing 200 uL/well were incubated at 37° C. in a humidified incubator with 5% CO2. On day T7 plates containing the samples were equilibrated at room temperature for approximately 15 min, and then 40 μL/well of the Promega CellTiterGlo® reagent was added. Contents were mixed for 30 minutes on an orbital shaker to induce cell lysis. Luminescence was read using a Synergy Neo 2 (Agilent Technologies.
Data was expressed as % of inhibition compared to the 0.2% DMSO negative control, and is calculated as follows: % inhibition=100−[(RLU sample)×100/(RLU controls*)], where * indicates the average for 0.2% DMSO. […]
as §1, with “12604054),” for “12604054) and”, “resuspended in” for “diluted with”, “at a” for “to obtain the”, “to each well of a” for “into wells in the”
Two hours after seeding cells, compounds were added at desired concentrations using a D300e compound dispenser (Tecan Trading AG) with shaking after each compound addition. Assay plates were incubated at 37° C. in a humidified incubator with 5% CO2.
On day 3 (T3) 150 μL of medium from assay plates were removed. 150 μL fresh medium and compounds were added at desired concentrations using a D300e compound dispenser (Tecan Trading AG) with shaking after each compound addition. […]

SMILES	IC50
C=CC(=O)N1[C@@H]2CC[C@H]1CN(c1nc(OC[C@@]34CCCN3C[C@H](F)C4)nc3c(F)c(-c4cc(O)cc(Cl)c4C4CC4)ccc13)C2 [Compound 1, 1-((1R,5S)-3-(7-(3-chloro-2-cyclopropyl-5-hydroxyphenyl)-8-fluoro-2-(((2R,7aS)-2-fluorotetrahydro-1H-pyrrolizin-7a(5H)-yl)methoxy)quinazolin-4-yl)-3,8-diazabicyclo[3.2.1]octan-8-yl)prop-2-en-1-one]	0.000742 µM

same assay, conditions: 168 h, Table 3, 7 day, mean, read-out: MIA PaCa-2 IC50 (μM) 7 day Mean

SMILES	IC50
C=CC(=O)N1CCN(c2nc(OC[C@@]34CCCN3C[C@H](F)C4)nc3cc(-c4c(O)cccc4C4CC4)c(F)cc23)[C@H](C)C1 [Compound 325, 1-[(3R)-4-[7-(2-cyclopropyl-6-hydroxy-phenyl)-6-fluoro-2-[[(2R,8S)-2-fluoro-1,2,3,5,6,7-hexahydropyrrolizin-8-yl]methoxy]quinazolin-4-yl]-3-methyl-piperazin-1-yl]prop-2-en-1-one]	0.0112 µM
C=CC(=O)N1CCC(CC)(c2nc(OC[C@@]34CCCN3C[C@H](F)C4)nc3c(F)c(-c4cc(O)cc(Cl)c4C4CC4)ncc23)CC1 [Compound 332, 1-[4-[7-(3-chloro-2-cyclopropyl-5-hydroxy-phenyl)-8-fluoro-2-[[(2R,8S)-2-fluoro-1,2,3,5,6,7-hexahydropyrrolizin-8-yl]methoxy]pyrido[4,3-d]pyrimidin-4-yl]-4-ethyl-1-piperidyl]prop-2-en-1-one]	> 1 µM
C=CC(=O)N1C2CCC1CN(c1nc(OC[C@@]34CCCN3C[C@H](F)C4)nc3cc(-c4cc(O)cc(Cl)c4C4CC4)c(F)cc13)C2 [Compound 308, 1-[3-[7-(3-chloro-2-cyclopropyl-5-hydroxy-phenyl)-6-fluoro-2-[[(2R,8S)-2-fluoro-1,2,3,5,6,7-hexahydropyrrolizin-8-yl]methoxy]quinazolin-4-y1]-3,8-diazabicyclo[3.2.1]octan-8-yl]prop-2-en-1-one]	0.0282 µM

Second part, the molecule after the results:

IC50	SMILES
> 1 µM	C=CC(=O)N1CCN(c2nc(OC[C@@]34CCCN3C[C@H](F)C4)nc3cc(-c4cc(O)cc(Cl)c4C4CC4)c(F)cc23)C2(CC2)C1 [Compound 316, 1-[4-[7-(3-chloro-2-cyclopropyl-5-hydroxy-phenyl)-6-fluoro-2-[[(2R,8S)-2-fluoro-1,2,3,5,6,7-hexahydropyrrolizin-8-yl]methoxy]quinazolin-4-yl]-4,7-diazaspiro[2.5]octan-7-yl]prop-2-en-1-one]
> 1 µM	C=CC(=O)N1C[C@H]2C[C@@H]1CN2c1nc(OC[C@@]23CCCN2C[C@H](F)C3)nc2c(F)c(-c3cc(O)cc(Cl)c3C3CC3)ccc12 [Compound 311, 1-[(1R,4R)-5-[7-(3-chloro-2-cyclopropyl-5-hydroxy-phenyl)-8-fluoro-2-[[(2R,8S)-2-fluoro-1,2,3,5,6,7-hexahydropyrrolizin-8-yl]methoxy]quinazolin-4-yl]-2,5-diazabicyclo[2.2.1]heptan-2-yl]prop-2-en-1-one]
0.0373 µM	C=CC(=O)N1CCN(c2nc(OC[C@@]34CCCN3C[C@H](F)C4)nc3c(F)c(-c4cc(O)cc(Cl)c4C4CC4)ccc23)CC12CC2 [Compound 313, 1-[7-[7-(3-chloro-2-cyclopropyl-5-hydroxy-phenyl)-8-fluoro-2-[[(2R,8S)-2-fluoro-1,2,3,5,6,7-hexahydropyrrolizin-8-yl]methoxy]quinazolin-4-yl]-4,7-diazaspiro[2.5]octan-4-yl]prop-2-en-1-one]
> 1 µM	C=CC(=O)N1CCN(c2nc(OC[C@@]34CCCN3C[C@H](F)C4)nc3cc(-c4cc(O)cc(Cl)c4C4CC4)cnc23)CC12CC2 [Compound 314, 1-[7-[7-(3-chloro-2-cyclopropyl-5-hydroxy-phenyl)-2-[[(2R,8S)-2-fluoro-1,2,3,5,6,7-hexahydropyrrolizin-8-yl]methoxy]pyrido[3,2-d]pyrimidin-4-y1]-4,7-diazaspiro[2.5]octan-4-yl]prop-2-en-1-one]

same assay, conditions: 168 h, Table 4, 7 day, mean, read-out: MIA PaCa-2 IC50 (μM) 7 day Mean

SMILES	IC50
Oc1cc(Cl)c(C2CC2)c(-c2ccc3c(N4CC5CCC(C4)N5)cc(OC[C@@]45CCCN4C[C@H](F)C5)nc3c2F)c1 [Compound 429, 3-chloro-4-cyclopropyl-5-[4-(3,8-diazabicyclo[3.2.1]octan-3-yl)-8-fluoro-2-[[(2R,8S)-2-fluoro-1,2,3,5,6,7-hexahydropyrrolizin-8-y1]methoxy]-7-quinolyl]phenol]	> 1 µM
C[C@@H]1CC(c2nc(OC[C@@]34CCCN3C[C@H](F)C4)nc3c(F)c(-c4cc(O)cc5ccc(F)c(F)c45)ncc23)CCN1 (stereo partly drawn) [Compound 440, 5,6-difluoro-4-[8-fluoro-2-[[(2R,8S)-2-fluoro-1,2,3,5,6,7-hexahydropyrrolizin-8-yl]methoxy]-4-[(2R)-2-methyl-4-piperidyl]pyrido[4,3-d]pyrimidin-7-yl]naphthalen-2-ol]	3.65 µM
Oc1cc(Cl)c(C2CC2)c(-c2ccc3c(C4CCNCC4)nc(OC[C@@]45CCCN4C[C@H](F)C5)nc3c2F)c1 [Compound 430, 3-chloro-4-cyclopropyl-5-[8-fluoro-2-[[(2R,8S)-2-fluoro-1,2,3,5,6,7-hexahydropyrrolizin-8-yl]methoxy]-4-(4-piperidyl)quinazolin-7-yl]phenol]	0.983 µM
Fc1cc2c(N3C[C@H]4C[C@@H]3CN4)nc(OC[C@@]34CCCN3C[C@H](F)C4)nc2cc1-c1cccc2cccc(Cl)c12 [Compound 411, 7-(8-chloro-1-naphthyl)-4-[(1R,4R)-2,5-diazabicyclo[2.2.1]heptan-2-y1]-6-fluoro-2-[[(2R,8S)-2-fluoro-1,2,3,5,6,7-hexahydropyrrolizin-8-yl]methoxy]quinazoline]	> 1 µM
CC(C)C(O)CN1C2CCC1CN(c1nc(OC[C@@]34CCCN3C[C@H](F)C4)nc3c(F)c(-c4cc(O)cc(Cl)c4C4CC4)ncc13)C2 (stereo partly shown) [Compound 434]	> 1 µM

Now from value to molecule:

IC50	SMILES
> 1 µM	Oc1cccc(Cl)c1-c1cc(F)c2c(N3C[C@H]4C[C@@H]3CN4)nc(OC[C@@]34CCCN3C[C@H](F)C4)nc2c1 [Compound 418]
> 1 µM	Oc1cc(Cl)c(C2CC2)c(-c2cc3nc(OC[C@@]45CCCN4C[C@H](F)C5)nc(N4CCNCC45CC5)c3cc2F)c1 [Compound 412, 3-chloro-4-cyclopropyl-5-[4-(4,7-diazaspiro[2.5]octan-4-yl)-6-fluoro-2-[[(2R,8S)-2-fluoro-1,2,3,5,6,7-hexahydropyrrolizin-8-yl]methoxy]quinazolin-7-yl]phenol]
> 1 µM	N#CC1CNCCN1c1nc(OC[C@@]23CCCN2C[C@H](F)C3)nc2cc(-c3cc(O)cc(Cl)c3C3CC3)cnc12 (stereo partly drawn) [Compound 416, 1-[7-(3-chloro-2-cyclopropyl-5-hydroxy-phenyl)-2-[[(2R,8S)-2-fluoro-1,2,3,5,6,7-hexahydropyrrolizin-8-yl]methoxy]pyrido[3,2-d]pyrimidin-4-yl]piperazine-2-carbonitrile]
> 1 µM	CCC1(c2nc(OC[C@@]34CCCN3C[C@H](F)C4)nc3c(F)c(-c4cc(O)cc(Cl)c4C4CC4)ncc23)CCNCC1 [Compound 441]
> 1 µM	N#C[C@H]1CNCCN1c1nc(OC[C@@]23CCCN2C[C@H](F)C3)nc2c(F)c(-c3cc(O)cc(Cl)c3C3CC3)ccc12 [Compound 415, (2R)-1-[7-(3-chloro-2-cyclopropyl-5-hydroxy-phenyl)-8-fluoro-2-[[(2R,8S)-2-fluoro-1,2,3,5,6,7-hexahydropyrrolizin-8-yl]methoxy]quinazolin-4-y1]piperazine-2-carbonitrile]
> 1 µM	C[C@@H]1CNCCN1c1nc(OC[C@@]23CCCN2C[C@H](F)C3)nc2cc(-c3c(O)cccc3C3CC3)c(F)cc12 [Compound 426]
